The text below walks through data of patent publication US11065244B2, “Methods of use of tetrahydroberberine (THB)” (DIGNITY HEALTH, priority 2010, dated 2021).

Assay [1] relates to SNc DA neurons. Kind of assay: Perforated patch current-clamp recording of membrane potential and firing of dissociated SNc DA neurons, substance applied alone. The assay is classed as cell-based, rat. The method, then:
The protocol for preparation of single neurons from the rat SNc was approved by the Institutional Animal Care and Use Committee of the Barrow Neurological Institute. Single DA neurons were acutely dissociated from the SNc of 2-3-week-old Wistar rats following the protocol as previously described. Briefly, rats were anesthetized with isoflurane, and brain tissue was rapidly removed and immersed in cold (2-4° C.) dissection solution which contained: 136.7 mM NaCl, 5 mM KCl, 0.1 mM Na2HPO4, 0.2 mM KH2PO4, 9.84 mM HEPES, 16.6 mM D-glucose, 21.9 mM sucrose, pH 7.3, 330 mOsm, oxygenated with 100% O2 [8]. Three 400-μm coronal slices containing the SNc were cut using a vibrotome (Vibroslice 725M, WPI, Sarasota, Fla.). After cutting, slices were continuously bubbled with 95% O2-5% CO2 at room temperature (22±1° C.) for at least one hour in artificial cerebrospinal fluid (ACSF), which contained: 124 mM NaCl, 5 mM KCl, 24 mM NaHCO3, 1.3 mM MgSO4, 1.2 mM KH2PO4, 2.4 mM CaCl2, and 10 mM glucose, pH 7.4. Thereafter, slices were treated with pronase (1 mg per 6 ml) at 31° C. for 30 minutes in ACSF. The SNc was identified in a coronal slice using a stereo microscope with reference to the rat brain atlas, and was micro-punched out from slices using a well-polished needle. One punched piece was then transferred to a 35-mm culture dish filled with well-oxygenated standard extracellular solution, which contained: 150 mM NaCl, 5 mM KCl, 1 mM MgCl2, 2 mM CaCl2, 10 mM glucose 10, and 10 mM HEPES, pH 7.4 (with Tris-base). The punched piece was then dissociated mechanically using a fire-polished micro-Pasteur pipette under an inverted microscope (Olympus IX-70, Lake Success, N.Y.). The separated cells adhered to the bottom of the culture dish within 30 minutes. In the present study, we used only DA neurons that maintained their original morphological features of polygonal, large or medium somata with 2-4 thick primary dendritic processes were used.
Perforated patch whole-cell recording techniques were employed as previously described. Pipettes (3-5 MΩ) used for perforated patch recording were filled with intracellular recording solution containing 140 mM potassium gluconate, 10 mM KCl, 5 mM MgCl2, and 10 mM HEPES, pH 7.2 (with Tris-OH). The amphotericin B was freshly prepared to 200-240 μg/ml from a 40 mg/ml in DMSO stock. The liquid junction potential was 14 mV calculated using Clamplex 9.2 (Axon Instruments, Foster City, Calif.) and corrections were made for junction potentials post-hoc. After tight seal (>2 GΩ) formation, it usually took about 5-20 min to convert to perforated patch mode, and an access resistance of 20-60 MΩ was accepted to start the experiments. Series resistance was not compensated in this study. The data were filtered at 2 kHz, acquired at 10 kHz and digitized on-line (Digidata 1322 series A/D board, Axon Instruments, Foster City, Calif.). […] Drug application was performed using a computer-controlled “U-tube” system as previously described. All experiments were performed at room temperature (22±1° C.). To enable identification of single, dissociated SNc neurons after a patch-clamp recording session, the recording pipette was filled with a fluorescent dye (lucifer yellow CH, Sigma Chemical Co., St. Louis, Mo., 1.0 mg/ml in the recording electrode) in some experiments. After conversion from the perforated patch to the conventional whole-cell recording mode, the dye was ejected into the cytoplasm by a pulse (200 ms, 0.5 Hz) of hyperpolarizing current (1.0 nA) for 3 min. Labeled cells were visualized using epifluorescence microscopy. […]

The subject of assay [2] is rat pancreatic islets. Kind of assay: Insulin release from rat pancreatic islets. In kind it is cell-based. As to conditions: 100 μM; 5.5 mM glucose external; from 22.5±1.2. How it is done: With 5.5 mM glucose in the external solution, basal insulin secretion was measured. […] Bath application of 100 μM THB increased insulin secretion from 22.5±1.2 to 39.4±1.5 pg/islet/min (FIG. 5; P<0.01; 6 cells) and 100 μM Ipt increased insulin secretion from 22.5±1.2 to 34.5±1.8 pg/islet/min (FIG. 11; P<0.05; 7 cells).

For `COc1ccc2c(c1OC)CN1CCc3cc4c(cc3C1C2)OCO4` (stereo not drawn) [THB, tetrahydroberberine], the “firing rate of spontaneous action potentials after exposure” value in assay [1] (100 μM bath-perfusion, before exposure 1.4 Hz, n=7, p<0.05) came to 2.2 Hz. Moreover, the “membrane potential after exposure to substance alone” value in assay [1] (100 μM, before: THB −46.5±0.9 (n=7), tolbutamide −44.4±1.6 (n=5)) is on record as −41.3±1.9 mV. Further, the “insulin secretion after bath application” value in assay [2] was determined as 39.4±1.5 pg/islet/min.
